The text below walks through data of publication PMC9552147 (Nature Communications, 2022).

Data set [1] relates to COX1 production (mitochondrial ribosomes) in HepG2 cells. The note with it: for COX1 production: human; for IC50: read-out: Cox IC50.
Procedure: (§1) Cells were trypsinized in 0.05% trypsin-EDTA (Gibco) and re-suspended in 10 mL growth medium. Cells were filtered through a 40 µm filter and seeded in collagen-coated 96-well plates (Life technologies #A11428-03) at 3500 cells/well in a volume of 170 µL/well with plates agitated upon cell addition to ensure even distribution. […] The plates were incubated an additional 72 h after which the medium was gently aspirated and replaced with 4% paraformaldehyde (100 µL/well) prepared in Dulbecco’s PBS. After 20 min fixation, the medium was removed, and wells washed three times with 200 µL/well PBS. Wells were treated for 5 min with 0.5% acetic acid (100 μL/well), wells were washed with 200 μL/well PBS and subsequently treated with permeabilization buffer (0.1 % Triton X-100) (100 μL/well) for 30 min. Buffer was removed and replaced with 2× blocking buffer from the ab110217 MitoBiogenesis™ In-Cell ELISA Kit (Abcam). After 2 h incubation, primary antibody was added (100 μl/well) in 1× blocking buffer per manufacturer’s recommendation except for the background control wells which received 100 μl/well 1× blocking buffer only. […] Alkaline phosphatase/horse radish peroxidase-labeled secondary antibody solution prepared according to the manufacturer’s instructions in 1× blocking buffer was added at 100 μl/well to all wells. After 1 h incubation, wells were washed 4 times with wash buffer (200 μl/well) followed by addition of 100 μl/well freshly prepared per manufacturer’s recommendation alkaline peroxidase development solution. […] The reagent was removed, and 100 μl/well horse radish peroxidase development solution added. […] The development solution was completely removed, and plates blotted to dryness after which 1× Janus green stain (50 μl/well) was added. […] Data was interpreted per manufacturer’s instructions and plotted in GraphPad Prism to calculate IC20 and IC50 values for Cox-I/SDHA and cell viability.
Data set [2] relates to HepG2 cells. The data set is described as follows: cells. In kind it is cell-based. The note with it: Homo sapiens.
Procedure: as §1
The test system of data set [3] is M. tuberculosis H37Rv.
Data set [4] has as its system SDHA production (cytoplasmic ribosomes) in HepG2 cells. The data set is described as follows: cells. Conditions: Homo sapiens.
Procedure: as §1
Data set [5] relates to M. tuberculosis H37Rv. Set-up: species or system C57BL/6 mice. Conditions: in vivo, 30 mg/kg.
The test system of data set [6] is M. tuberculosis. More on the design: species or system C57BL/6 mice. Conditions: in vivo, 100 mg/kg.
The subject of data set [7] is M. tuberculosis H37Rv. It is filed as cell-based, Mycobacterium tuberculosis. More on the design: MIC, No Lysine / MIC, No Lysine, Ave: unit not given beside the values.
The nature of data set [8]: in vitro. Conditions: human, HepG2 IC50 (cytotoxicity).
For data set [9], the system named is HepG2 cells. The experiment in a line: cells. The note with it: Homo sapiens.
In data set [10] the test system is M. tuberculosis H37Rv:luc within THP1 monocytes. The data set is described as follows: microbe, parasite or virus in culture. It is filed as cell-based. Conditions: Mycobacterium tuberculosis.
Data set [11] relates to SDHA production (cytoplasmic ribosomes) in HepG2 cells.
Procedure: as §1
For data set [12], the system named is COX1 production (mitochondrial ribosomes) in HepG2 cells. The data set is described as follows: cells. Conditions: Homo sapiens.
Procedure: as §1
Data set [13] deals with HepG2 cells.
For data set [14], the system named is M. tuberculosis H37Rv. The experiment in a line: microbe, parasite or virus in culture. It is filed as cell-based, Mycobacterium tuberculosis. Conditions: for MIC: Mycobacterium tuberculosis, H37RV.
The test system of data set [15] is M. tuberculosis H37Rv. More on the design: species or system BALB/c mice. The note with it: in vivo.
Data set [16] deals with lysine biosynthetic pathway metabolites in M. tuberculosis. In kind it is cell-based, Mycobacterium tuberculosis.

Structures are written as SMILES. ≈ marks a conversion by molar mass, not a printed value. Where “and” joins values, the source holds several entries; their conditions need not be identical. Equal values may be shown once. Read-outs that look alike come from different tables or passages of the source.

As a reminder, the IC50 is the midpoint of a concentration-inhibition curve.

In the case of `CC(=O)NC[C@H]1CN(c2ccc(N3CCOCC3)c(F)c2)C(=O)O1` [Linezolid, linezolid], the COX1 production entry in data set [1] is listed as “selective inhibition of COX1 production”. Moreover, in [2] (HepG2, read-out: JG IC50), the 50% inhibitory concentration (IC50) is > 100 µM. In addition, in [3], the “CFU/ml, Day 0” value was 103000 CFU/ml; the “CFU/ml, Day 2” value is 400000 CFU/ml and 600000 CFU/ml; the “CFU/ml, Day 4” value was 140000 CFU/ml and 70000 CFU/ml; the “CFU/ml, Day 7” value is 70000 CFU/ml and 53000 CFU/ml. For the same molecule, the “CFU/ml, Day 14” value in data set [3] was 8600 CFU/ml and 7100 CFU/ml. In addition, the IC50 in data set [4] (HepG2, read-out: SDH-A IC50) is > 100 µM.
On to `COc1c(N2C[C@@H]3CCCN[C@@H]3C2)c(F)cc2c(=O)c(C(=O)O)cn(C3CC3)c12` [Moxifloxacin], for which, in [5], the “logCFUs per mouse (lungs)” value is 3.2 logCFUs per mouse and 3.3 logCFUs per mouse (2×) and 2.4 logCFUs per mouse and 2.9 logCFUs per mouse and 3.5 logCFUs per mouse and 3.8 logCFUs per mouse (2×) and 2.6 logCFUs per mouse; the “logCFUs per mouse (lungs), Mean” value was 3 logCFUs per mouse and 3.4 logCFUs per mouse. Also, in data set [6], the “logCFUs per mouse (lungs)” value is 2.5 logCFUs per mouse (2×) and 2.3 logCFUs per mouse and 1.9 logCFUs per mouse and 2.2 logCFUs per mouse; the “logCFUs per mouse (lungs), Mean” value turned out to be 2.3 logCFUs per mouse. Moreover, in data set [7], the “MIC, +1mM Lysine” value is 2.04 and 3.47; the “MIC, +1mM Lysine, Ave” value turned out to be 2.75; the “MIC, No Lysine” value is 1.02 and 1.45; the “MIC, No Lysine, Ave” value came to 1.23.
As for `Nc1cc2c(c(F)n1)C(=O)N(C1CCCCC1)C2` [Compound 2], the 50% inhibitory concentration (IC50) in [8] was 11 µM; in [1] it was 3.54 µM and 4.59 µM and 3.47 µM; in data set [9] (HepG2, read-out: IC50 (µM), Geo Mean) it was 10.7 µM; in data set [9] (HepG2, read-out: IC50 (µM), Mean), 11.8 µM; in data set [2] (HepG2, read-out: JG IC50, Ave), 3.3 µM; in data set [4] (HepG2, read-out: SDH-A IC50), 3.04 µM. The IC50 in [4] (HepG2, read-out: SDH-A IC50, Ave) is 3.3 µM; in data set [11] (read-out: SDH-A IC50) it was 2.89 µM and 3.53 µM and 3.87 µM; in data set [12] (HepG2, read-out: Cox IC50) it was 2.67 µM; in [12] (HepG2, read-out: Cox IC50, Ave), 3.6 µM; in [13] it was 7.94 µM. In addition, the COX1 production result in [1] is “blocked expression of both COX1 and SDHA”. The MIC amounted to 0.71 µM (≈ 0.177 µg/mL) in [10]; 0.6 µM (≈ 0.15 µg/mL) in data set [14] (read-out: MIC (µM), single replicate); 0.6 µM (≈ 0.15 µg/mL) in [14] (read-out: MIC, Geo Mean); 0.6 µM (≈ 0.15 µg/mL) in [14] (read-out: MIC, Mean); 0.6 µM (≈ 0.15 µg/mL) in data set [14] (read-out: MIC, Median); 0.89 µM (≈ 0.222 µg/mL) in data set [14] (read-out: WT MIC). The MIC in data set [14] (read-out: WT MIC, Ave) amounted to 0.82 µM (≈ 0.204 µg/mL). Moreover, in [11] (human), the SDHA production result is “blocked expression of both COX1 and SDHA”. Besides, the “WT MIC” value in data set [14] was found to be 0.74 µM.
Take `O=[N+]([O-])c1cn2c(n1)OC[C@@H](OCc1ccc(OC(F)(F)F)cc1)C2` [Pa, pretomanid]: in data set [15], the “logCFUs per mouse (lungs)” value was 4.68 logCFUs per mouse and 4.53 logCFUs per mouse and 4.19 logCFUs per mouse and 4.48 logCFUs per mouse and 4.10 logCFUs per mouse; the “logCFUs per mouse (lungs), Mean” value worked out at 4.4 logCFUs per mouse. Besides, the “change in lung CFU over the treatment period” value in data set [15] (mouse) was “significant decrease in CFU”.
As to `NNC(=O)c1ccncc1` [isoniazid], in data set [7], the “MIC, +1mM Lysine” value was 2.82 and 2.63; the “MIC, +1mM Lysine, Ave” value is listed as 2.72; the “MIC, No Lysine” value was 3.02 and 3.39; the “MIC, No Lysine, Ave” value was 3.20.
Consider `Nc1ncc2c(n1)CC(C1CCC1)C2=O` (centres unmarked) [Compound 9], for which, in data set [16], the “Acetyl-amino-oxopimelate, Raw data” value is 6696.89 and 6125.64 and 5614.65; the “Acetyl-aminoadipate, Raw data” value is 373220.66 and 356398.25 and 363487.19; the “Acetyl-diaminopimelate, Raw data” value was 268291.72 and 294087.29 and 265596.05; the “Allysine, Raw data” value was 6339.98 and 6256.07 and 3388.68. Besides, in data set [16], the “Amino-oxoheptanedioate, Raw data” value is 67628.76 and 66386.61 and 73890.51; the “Aminoadipate, Raw data” value was 230713.39 and 278620.19 and 273252.31; the “Glutamic acid, Raw data” value was 95052793.71 and 89933952.73 and 93441271.33; the “Lysine or Methylornithine, Raw data” value is 376867.18 and 321105.18 and 351101.87. Moreover, in data set [16], the “Saccharopine, Raw data” value was 4344892.84 and 4372904.79 and 3935929.36; the “Succinyl-diaminopimelate, Raw data” value was 61950.05 and 84823.10 and 63130.16; the “diaminopimelate, Raw data” value is 182757.00 and 205469.42 and 201059.38.
Take `CO[C@H]1/C=C/O[C@@]2(C)Oc3c(C)c(O)c4c(O)c(c(/C=N/N5CCN(C)CC5)c(O)c4c3C2=O)NC(=O)/C(C)=C\C=C\[C@H](C)[C@H](O)[C@@H](C)[C@@H](O)[C@@H](C)[C@H](OC(C)=O)[C@@H]1C` [Rifampicin, rifampicin]: in [3], the “CFU/ml, Day 0” value is 103000 CFU/ml; the “CFU/ml, Day 2” value is 270000 CFU/ml and 190000 CFU/ml; the “CFU/ml, Day 7” value was 5000 CFU/ml and 5100 CFU/ml; the “CFU/ml, Day 14” value is 440 CFU/ml and 430 CFU/ml.
On to `O=C(N[C@H](CO)[C@H](O)c1ccc([N+](=O)[O-])cc1)C(Cl)Cl` [chloramphenicol], for which the COX1 production entry in data set [1] is given as “selective inhibition of COX1 production”. Further, the IC50 in data set [1] was 4.44 µM and 3.97 µM and 4.95 µM; in data set [2] (HepG2, read-out: JG IC50) it was > 100 µM; in [4] (HepG2, read-out: SDH-A IC50) it was > 100 µM; in data set [12] (HepG2, read-out: Cox IC50), 5.11 µM; in [12] (HepG2, read-out: Cox IC50, Ave), 4.6 µM.
